According to US7511145B2 (Genelabs Technologies, Inc., priority 2003, dated 2009):

Biological target: T1, HCV-NS5b (Hepatitis C virus genotype 1b, UniProt Q9WMX2)
T1 construct: (His)6 (C); made in house; host or cells: XL-1 cells (E. coli), IPTG-inducible plasmid, nickel-NTA purification
Experiment: HCV-NS5b enzyme assay (incorporation of radiolabeled UTP)
Type: biochemical
Details: for inhibition at 33 µM: enzyme inhibition at compound concentration of 33 uM; for inhibition at 100 µM: read-out: % inh@100, enzyme inhibition at compound concentration of 100 uM
Text: The coding sequence of NS5b protein was cloned by PCR from pFKI389luc/NS3-3′/ET as described by Lohmann, V., et al. (1999) Science 285, 110-113 using the following primers: […]
The cloned fragment was missing the C terminus 21 amino acid residues. The cloned fragment was inserted into an IPTG-inducible expression plasmid that provided an epitope tag (His)6 at the carboxy terminus of the protein.
The recombinant enzyme was expressed in XL-1 cells and after induction of expression, the protein was purified using affinity chromatography on a nickel-NTA column. Storage condition was 10 mM Tris-HCl pH 7.5, 50 mM NaCl, 0.1 mM EDTA, 1 mM DTT, 20% glycerol at −20° C.
The polymerase activity was assayed by measuring incorporation of radiolabeled UTP into a RNA product using a biotinylated, heteropolymeric template, which included a portion of the HCV genome. Typically, the assay mixture (50 μL) contained 10 mM Tris-HCl (pH 7.5), 5 mM MgCl2, 0.2 mM EDTA, 10 mM KCl, 1 unit/μL RNAsin, 1 mM DTT, 10 μM each of NTP, including [^3H]-UTP, and 10 ng/μL heteropolymeric template. Test compounds were initially dissolved in 100% DMSO and further diluted in aqueous buffer containing 5% DMSO. Typically, compounds were tested at concentrations between 1 nM and 100 μM. Reactions were started with addition of enzyme and allowed to continue at 37° C. for 2 hours. Reactions were quenched with 8 μL of 100 mM EDTA and reaction mixtures (30 μL) were transferred to streptavidin-coated scintillation proximity microtiter plates (FlashPlates) and incubated at 4° C. overnight. Incorporation of radioactivity was determined by scintillation counting.
Shown in Table IX below are the values for enzyme inhibition measured at compound concentrations of 100 and 33 uM, (% inh@[…] and % inh@33, respectively). The percent inhibition values are calculated from the differential incorporation of radioactivity compared to a control reaction without compound: % inhibition=100−[(CountsINH−CountsBKG)/CountsCTRL−CountsBKG)×100 where CountsINH is the signal of the testwell with inhibitor, CountsBKG is the background signal and CountsCTRL is the signal of a testwell without inhibitor.

Row | Compound | inhibition at 33 µM | inhibition at 100 µM
1 | Nc1ccc(-c2ccc3cc(-c4nc5cc(C(=O)O)ccc5n4C4CCCCC4)ccc3n2)cc1Br [Compound 372, 2-[2-(4-amino-3-bromo-phenyl)-quinolin-6-yl]-1-cyclohexyl-1H-benzoimidazole-5-carboxylic acid] | 98.1% | 98.2%
2 | COc1ccc(-c2ccc(OC)cc2-c2ccc3cc(-c4nc5cc(C(=O)O)ccc5n4C4CCCCC4)ccc3n2)cc1 [Compound 468, 1-cyclohexyl-2-[2-(4,4′-dimethoxy-biphen-2-yl)-quinolin-6-yl]-1H-benzoimidazole-5-carboxylic acid] | 99.3% | 99.1%
3 | O=C(O)c1ccc2c(c1)nc(-c1ccc3nc(-c4ccccc4)c(-c4ccccc4)cc3c1)n2C1CCCCC1 [Compound 386, 1-cyclohexyl-2-(2,3-diphenyl-quinolin-6-yl)-1H-benzoimidazole-5-carboxylic acid] | 100% | 99.9%
4 | COc1ccc(-c2ccc(Cl)cc2)c(-c2ccc3cc(-c4nc5cc(-c6nnn[nH]6)ccc5n4C4CCCCC4)ccc3n2)c1 [Compound 525, 2-(4′-chloro-4-methoxy-biphen-2-yl)-6-[1-cyclohexyl-5-(1H-tetrazol-5-yl)-1H-benzoimidazol-2-yl]-quinoline] | 101% | 101%
5 | O=C(O)c1ccc2c(c1)nc(-c1ccc3nc(-c4cc5c(cc4-c4ccc(Cl)cc4)OCCCO5)ccc3c1)n2C1CCCCC1 [Compound 565, 2-{2-[8-(4-chloro-phenyl)-3,4-dihydro-2H-benzo[b][1,4]dioxepin-7-yl]-quinolin-6-yl}-1-cyclohexyl-1H-benzoimidazole-5-carboxylic acid] | 102% | 100%
6 | Cc1oc2ccc(OCc3ccccc3)cc2c1-c1ccc2cc(-c3nc4cc(C(=O)O)ccc4n3C3CCCCC3)ccc2n1 [Compound 448, 2-[2-(5-benzyloxy-2-methyl-benzofuran-3-yl)-quinolin-6-yl]-1-cyclohexyl-1H-benzoimidazole-5-carboxylic acid] | 94.6% | 96%
7 | Cc1cc(-c2ccccc2-c2ccc(Cl)cc2)nc2ccc(-c3nc4cc(C(=O)O)ccc4n3C3CCCCC3)cc12 [Compound 485, 2-[2-(4′-Chloro-biphen-2-yl)-4-methyl-quinolin-6-yl]-1-cyclohexyl-1H-benzoimidazole-5-carboxylic acid] | 98.6% | 99.5%
8 | O=C(c1ccc(-c2ccc(Cl)cc2)c(-c2ccc3cc(-c4nc5cc(-c6nnn[nH]6)ccc5n4C4CCCCC4)ccc3n2)c1)N1CCCC1 [Compound 259, (4′-chloro-2-{6-[1-cyclohexyl-5-(1H-tetrazol-5-yl)-1H-benzoimidazol-2-yl]-quinolin-2-yl}-biphenyl-4-yl)-pyrrolidin-1-yl-methanone] | 99.7% | 99.4%
9 | Cc1cc(-c2ccc3cc(-c4nc5cc(C(=O)O)ccc5n4C4CCCCC4)ccc3n2)c(O)c([N+](=O)[O-])c1 [Compound 418, 1-cyclohexyl-2-[2-(2-hydroxy-5-methyl-3-nitro-phenyl)-quinolin-6-yl]-1H-benzoimidazole-5-carboxylic acid] | 104% | 103%
10 | O=C(O)c1ccc2c(c1)nc(-c1ccc3nc(-c4cc(-c5ccc(Cl)c(Cl)c5)no4)ccc3c1)n2C1CCCCC1 [Compound 479, 1-cyclohexyl-2-{2-[3-(3,4-dichloro-phenyl)-isoxazol-5-yl]-quinolin-6-yl}-1H-benzoimidazole-5-carboxylic acid] | 99.6% | 102%
11 | COc1ccc(-c2ccc(C)cc2)c(-c2ccc3cc(-c4nc5cc(C(=O)O)ccc5n4C4CCCCC4)ccc3n2)c1 [Compound 438, 1-cyclohexyl-2-[2-(4-methoxy-4′-methyl-biphen-2-yl)-quinolin-6-yl]-1H-benzoimidazole-5-carboxylic acid] | 98.7% | 99.6%
12 | O=C(O)c1ccc2c(c1)nc(-c1ccc3nc(-c4ccccc4-c4ccncc4)ccc3c1)n2C1CCCCC1 [Compound 369, 1-Cyclohexyl-2-[2-(2-pyrid-4-yl-phenyl)-quinolin-6-yl]-1H-benzoimidazole-5-carboxylic acid] | 96.2% | 98.8%
13 | COc1ccc(-c2ccc(C(=O)O)cc2)c(-c2ccc3cc(-c4nc5cc(C(=O)O)ccc5n4C4CCCCC4)ccc3n2)c1 [Compound 421, 2-[2-(4′-carboxy-4-methoxy-biphen-2-yl)-quinolin-6-yl]-1-cyclohexyl-1H-benzoimidazole-5-carboxylic acid] | 100% | 100%
14 | NC(=O)CNC(=O)c1ccc(-c2ccccc2)c(-c2ccc3cc(-c4nc5cc(C(=O)O)ccc5n4C4CCCCC4)ccc3n2)c1 [Compound 377, 2-{2-[4-(Carbamoylmethyl-carbamoyl)-biphen-2-yl]-quinolin-6-yl}-1-cyclohexyl-1H-benzoimidazole-5-carboxylic acid] | 99.2% | 99.4%
15 | O=C(O)c1ccc2c(c1)nc(-c1ccc3nc(C(=O)Nc4ccc(Cl)cc4)ccc3c1)n2C1CCCCC1 [Compound 510, 2-[2-(4-Chlorophenylcarbamoyl)quinolin-6-yl]-1-cyclohexyl-1H-benzimidazole-5-carboxylic acid] | 99.5% | 100%
16 | O=C(O)c1ccc2c(c1)nc(-c1ccc3nc(-c4ccccc4)cc(Nc4ccc(Cl)cc4)c3c1)n2C1CCCCC1 [Compound 380, 2-[4-(4-chloro-phenylamino)-2-phenyl-quinolin-6-yl]-1-cyclohexyl-1H-benzoimidazole-5-carboxylic acid] | 97.6% | 101%
17 | COc1ccc(-c2cccc(Cl)c2)c(-c2ccc3cc(-c4nc5cc(C(=O)O)ccc5n4C4CCCCC4)ccc3n2)c1 [Compound 422, 2-[2-(3′-chloro-4-methoxy-biphen-2-yl)-quinolin-6-yl]-1-cyclohexyl-1H-benzoimidazole-5-carboxylic acid] | 98.8% | 99.2%
18 | COc1ccc(-c2ccc(Cl)cc2)c(-c2ccc3cc(-c4nc5cc(C(=O)O)ccc5n4Cc4ccccc4)ccc3n2)c1 [Compound 559, 1-Benzyl-2-[2-(4′-chloro-4-methoxy-biphen-2-yl)-quinolin-6-yl]-1H-benzoimidazole-5-carboxylic acid] | 101% | 101%
19 | NC(=O)CC[C@H](NC(=O)c1ccc2c(c1)nc(-c1ccc3nc(-c4ccccc4)cnc3c1)n2C1CCCCC1)C(=O)O [Compound 541, 4-Carbamoyl-2-{[1-cyclohexyl-2-(2-phenyl-quinoxalin-6-yl)-1H-benzoimidazole-5-carbonyl]-amino}-butyric acid] | 76.1% | 98.1%
20 | O=C(O)c1ccc2c(c1)nc(-c1ccc3nc(-c4cn(-c5cccnc5Cl)c(=O)[nH]c4=O)ccc3c1)n2C1CCCCC1 [Compound 431, 2-{2-[1-(2-chloro-pyridin-3-yl)-2,4-dioxo-1,2,3,4-tetrahydro-pyrimidin-5-yl]-quinolin-6-yl}-1-cyclohexyl-1H-benzoimidazole-5-carboxylic acid] | 95.3% | 96.4%
21 | Cc1nn(-c2ccccc2)c(C)c1-c1ccc2cc(-c3nc4cc(C(=O)O)ccc4n3C3CCCCC3)ccc2n1 [Compound 464, 1-cyclohexyl-2-[2-(3,5-dimethyl-1-phenyl-1H-pyrazol-4-yl)-quinolin-6-yl]-1H-benzoimidazole-5-carboxylic acid] | 99.7% | 100%
22 | O=C(O)c1ccc2c(c1)nc(-c1ccc3nc(-c4cc(Cl)ccc4-c4ccc(Cl)cc4)ccc3c1)n2C1CCCCC1 [Compound 567, 1-cyclohexyl-2-[2-(4,4′-dichloro-biphen-2-yl)-quinolin-6-yl]-1H-benzoimidazole-5-carboxylic acid] | 101% | 97.7%
23 | COc1ccc(-c2ccc(C(F)(F)F)cc2)c(-c2ccc3cc(-c4nc5cc(C(=O)O)ccc5n4C4CCCCC4)ccc3n2)c1 [Compound 436, 1-cyclohexyl-2-[2-(4-methoxy-4′-trifluoromethyl-biphen-2-yl)-quinolin-6-yl]-1H-benzoimidazole-5-carboxylic acid] | 98.8% | 99.3%
24 | O=C(O)c1ccc2c(c1)nc(-c1ccc3nc(-c4cc(OCC(=O)N5CCCC5)ccc4-c4ccccc4)ccc3c1)n2C1CCCCC1 [Compound 360, 1-cyclohexyl-2-{2-[4-(2-oxo-2-pyrrolidin-1-yl-ethoxy)-biphen-2-yl]-quinolin-6-yl}-1H-benzoimidazole-5-carboxylic acid] | 97.6% | 97.9%
